Measured values from US7749996B2, “Heterotricyclic metalloprotease inhibitors” (Alantos Pharmaceutical Holdings, Inc., priority 2006, dated 2010).

What was measured:
Assay type in all cases: biochemical
[1] = target: T1, catalytic domain of MMP-13 enzyme (Homo sapiens, UniProt P45452); test: Assay for determining MMP-13 inhibition (fluorescent substrate); details: Table 1, activity group
T1 construct: stock solution of catalytic domain of MMP-13 enzyme (produced by Alantos or commercially available from Invitek (Berlin), Cat.# 30100812); purchased Invitek (Berlin) 30100812
Protocol: (§1) The typical assay for MMP-13 activity is carried out in assay buffer comprised of 50 mM Tris, pH 7.5, 150 mM NaCl, 5 mM CaCl2 and 0.05% Brij-35. Different concentrations of tested compounds are prepared in assay buffer in 50 μL aliquots. […] The mixture of enzyme and compound in assay buffer is thoroughly mixed and incubated for 10 min at room temperature. […] The time-dependent increase in fluorescence is measured at the 320 nm excitation and 390 nm emission by automatic plate multireader. The IC50 values are calculated from the initial reaction rates.

activated MMP-8 enzyme = target: T2, activated MMP-8 enzyme (Homo sapiens, UniProt P22894); test: Assay for determining MMP-8 inhibition (fluorescent substrate); details: Table 2, activity group
T2 construct: purchased Calbiochem 444229
Protocol: as §1, with “MMP-8” for “MMP-13”, “37° C.” for “room temperature.”, “by an” for “by”, “multireader at 37° C.” for “multireader.”

[2] = target: T3, catalytic domain of MMP-3 enzyme (Homo sapiens, UniProt P08254); test: Assay for determining MMP-3 inhibition (NFF-3 fluorescent substrate); details: Table 3, activity group
T3 construct: stock solution of the catalytic domain of MMP-3 enzyme (Biomol, Cat. No. SE-109); purchased Biomol SE-109
Protocol: as §1, with “MMP-3” for “MMP-13”, “MES,” for “Tris,”, “6.0, 10” for “7.5, 150 mM NaCl, 5”, “330” for “320”, “by an” for “by”

T2 sequence (P22894 101-467): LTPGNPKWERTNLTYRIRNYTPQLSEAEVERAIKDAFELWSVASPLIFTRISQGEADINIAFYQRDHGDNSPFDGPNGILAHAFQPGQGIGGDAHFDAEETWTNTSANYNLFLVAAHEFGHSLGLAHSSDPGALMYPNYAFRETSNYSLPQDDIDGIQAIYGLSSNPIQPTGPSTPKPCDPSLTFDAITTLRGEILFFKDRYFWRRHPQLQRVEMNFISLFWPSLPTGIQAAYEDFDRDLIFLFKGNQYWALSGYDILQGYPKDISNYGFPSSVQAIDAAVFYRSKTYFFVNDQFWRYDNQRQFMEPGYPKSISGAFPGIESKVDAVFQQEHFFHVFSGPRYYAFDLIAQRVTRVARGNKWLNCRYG
T3 sequence (P08254 100-272 limits assumed): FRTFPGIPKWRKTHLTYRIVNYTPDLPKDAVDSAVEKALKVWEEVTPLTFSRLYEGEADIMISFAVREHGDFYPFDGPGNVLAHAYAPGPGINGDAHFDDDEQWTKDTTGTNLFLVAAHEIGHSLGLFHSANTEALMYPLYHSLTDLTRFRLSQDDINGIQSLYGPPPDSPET

- IC50 [1]: < 100 nM
- IC50 (activated MMP-8 enzyme): < 250 nM
- IC50 [2]: 250 to 20000 nM
Compound: O=C1COc2ccc(CNC(=O)c3nc4sc5c(c4c(=O)[nH]3)CC(C(=O)O)C5)cc2N1 (stereo not drawn) [4/15]
